Biological target: P. falciparum apicoplast DNA polymerase (Pf-apPOL) (Plasmodium falciparum, UniProt Q8ILY1)
Assay: Fluorescence-based high-throughput DNA polymerase assay (molecular beacon), primary screen and dose-response;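 as to % inhibition ApPOL 90': test concentration in µM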;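 as to % inhibition apPOL 180': test concentration in µM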
Format: biochemical
Details: for DNA Pol: 90 min, 10 µM
Outline: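 Single-point screening used 10 µM compound with 20 nM polymerase, 20 nM hairpin substrate and 6 µM dNTPs for 90 min at 25 °C. Confirmatory titrations (2.5–80 µM) followed fluorescence at three times, and IC50 was derived from a fit including a cooperativity term n.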

P. falciparum apicoplast DNA polymerase (Pf-apPOL), sequence (Q8ILY1 entry or part of it): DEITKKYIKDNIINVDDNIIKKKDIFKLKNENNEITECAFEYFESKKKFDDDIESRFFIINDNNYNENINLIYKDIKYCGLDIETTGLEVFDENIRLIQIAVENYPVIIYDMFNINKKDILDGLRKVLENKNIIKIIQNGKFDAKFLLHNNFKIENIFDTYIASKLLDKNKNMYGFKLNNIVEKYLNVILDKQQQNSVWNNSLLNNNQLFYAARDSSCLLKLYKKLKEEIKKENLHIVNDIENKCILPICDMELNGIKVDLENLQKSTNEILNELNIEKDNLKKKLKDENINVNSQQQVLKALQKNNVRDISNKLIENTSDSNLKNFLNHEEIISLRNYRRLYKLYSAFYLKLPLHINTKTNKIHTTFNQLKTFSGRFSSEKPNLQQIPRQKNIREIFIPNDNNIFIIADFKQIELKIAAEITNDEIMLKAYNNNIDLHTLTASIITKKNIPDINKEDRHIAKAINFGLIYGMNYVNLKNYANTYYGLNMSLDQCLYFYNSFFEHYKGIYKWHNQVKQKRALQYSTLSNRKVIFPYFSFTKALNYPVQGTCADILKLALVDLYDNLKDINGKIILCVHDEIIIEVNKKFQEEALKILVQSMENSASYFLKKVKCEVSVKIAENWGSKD

Q: How did the “% inhibition Apo pol 10'” value (DRC-1, concentration 2.5) turn out when O=C1C(=Cc2ccncc2)Oc2c1ccc1c2CN(Cc2ccc3c(c2)OCO3)CO1 [KU0199357] was run?
A: Its value is -2.582%.

Q: What about the “% inhibition Apo pol 10'” value (DRC-1, concentration 5) of the same compound?
A: Its value is 7.288%.

Q: What about the “% inhibition Apo pol 10'” value (DRC-1, concentration 10) of the same compound?
A: Its value is 20.9046%.

Q: And the “% inhibition Apo pol 10'” value (DRC-1, concentration 20)?
A: Its value is 43.4481%.

Q: And the “% inhibition Apo pol 10'” value (DRC-1, concentration 40)?
A: Its value is 58.0959%.

Q: What about the “% inhibition Apo pol 10'” value (DRC-1, concentration 80) of the same compound?
A: Its value is 67.6881%.

Q: And the “% inhibition Apol 90'” value (DRC-1, concentration 2.5)?
A: The value was 5.905%.

Q: What about the “% inhibition Apol 90'” value (DRC-1, concentration 5) of the same compound?
A: Its value is 17.1592%.

Q: What about the “% inhibition Apol 90'” value (DRC-1, concentration 10) of the same compound?
A: The value was 34.0534%.

Q: And the “% inhibition Apol 90'” value (DRC-1, concentration 20)?
A: The value was 57.2301%.

Q: What about the “% inhibition Apol 90'” value (DRC-1, concentration 40) of the same compound?
A: Its value is 66.3839%.

Q: And the “% inhibition Apol 90'” value (DRC-1, concentration 80)?
A: Its value is 71.081%.

Q: And the “% inhibition apPOL 180'” value (DRC-1, concentration 2.5)?
A: The value was 18.2%.

Q: What about the “% inhibition apPOL 180'” value (DRC-1, concentration 5) of the same compound?
A: The value was 33.6281%.

Q: What about the “% inhibition apPOL 180'” value (DRC-1, concentration 10) of the same compound?
A: Its value is 52.8401%.

Q: What about the “% inhibition apPOL 180'” value (DRC-1, concentration 20) of the same compound?
A: The value was 75.9569%.

Q: What about the “% inhibition apPOL 180'” value (DRC-1, concentration 40) of the same compound?
A: The value was 84.0502%.

Q: What about the “% inhibition apPOL 180'” value (DRC-1, concentration 80) of the same compound?
A: The value was 84.7923%.

Q: And the “% inhibition Apo pol 5'” value (DRC-2, concentration 2.5)?
A: The value was 6%.

Q: And the “% inhibition Apo pol 5'” value (DRC-2, concentration 5)?
A: Its value is 15%.

Q: What about the “% inhibition Apo pol 5'” value (DRC-2, concentration 10) of the same compound?
A: The value was 35%.

Q: What about the “% inhibition Apo pol 5'” value (DRC-2, concentration 20) of the same compound?
A: Its value is 37%.

Q: What about the “% inhibition Apo pol 5'” value (DRC-2, concentration 40) of the same compound?
A: The value was 46%.

Q: And the “% inhibition Apo pol 5'” value (DRC-2, concentration 80)?
A: The value was 40%.

Q: And the “% inhibition Apol 40'” value (DRC-2, concentration 2.5)?
A: The value was 1.87%.

Q: And the “% inhibition Apol 40'” value (DRC-2, concentration 5)?
A: The value was 3%.

Q: What about the “% inhibition Apol 40'” value (DRC-2, concentration 10) of the same compound?
A: The value was 31%.

Q: What about the “% inhibition Apol 40'” value (DRC-2, concentration 20) of the same compound?
A: The value was 32%.

Q: And the “% inhibition Apol 40'” value (DRC-2, concentration 40)?
A: Its value is 39%.

Q: What about the “% inhibition Apol 40'” value (DRC-2, concentration 80) of the same compound?
A: Its value is 34%.

Q: And the “% inhibition ApPOL 90'” value (DRC-2, concentration 2.5)?
A: Its value is -1.19%.

Q: And the “% inhibition ApPOL 90'” value (DRC-2, concentration 5)?
A: The value was -9%.

Q: What about the “% inhibition ApPOL 90'” value (DRC-2, concentration 10) of the same compound?
A: The value was 26%.

Q: And the “% inhibition ApPOL 90'” value (DRC-2, concentration 20)?
A: Its value is 27%.

Q: What about the “% inhibition ApPOL 90'” value (DRC-2, concentration 40) of the same compound?
A: The value was 36%.

Q: What about the “% inhibition ApPOL 90'” value (DRC-2, concentration 80) of the same compound?
A: Its value is 34%.

Q: What about the “% inhibition apPOL 180'” value (DRC-2, concentration 2.5) of the same compound?
A: The value was -7%.

Q: What about the “% inhibition apPOL 180'” value (DRC-2, concentration 5) of the same compound?
A: Its value is -87%.

Q: What about the “% inhibition apPOL 180'” value (DRC-2, concentration 10) of the same compound?
A: The value was 11%.

Q: What about the “% inhibition apPOL 180'” value (DRC-2, concentration 20) of the same compound?
A: The value was 13%.

Q: What about the “% inhibition apPOL 180'” value (DRC-2, concentration 40) of the same compound?
A: The value was 28%.

Q: And the “% inhibition apPOL 180'” value (DRC-2, concentration 80)?
A: Its value is 35%.

Q: What about the “% inhibition Apo pol 5'” value (conc. 10, DRC-2) of the same compound?
A: Its value is 35%.

Q: And the “% inhibition Apol 40'” value (conc. 80, DRC-2)?
A: Its value is 34%.

Q: And the “% inhibition ApPOL 90'” value (conc. 80, DRC-2)?
A: Its value is 34%.

Q: What about the “% inhibition apPOL 180'” value (conc. 80, DRC-2) of the same compound?
A: The value was 35%.

Q: And the “DNA Pol” value (primary screen value by plate and well)?
A: The value was 32.

Q: And the “DNA Pol” value (primary screen value of the 186 hits, unit not given)?
A: The value was 32.

Q: For COc1ccc(S(=O)(=O)/N=C2\NC(=O)/C(=C3\C(=O)Nc4ccc([N+](=O)[O-])cc43)S2)cc1 [KU0054985], which “DNA Pol” value ('DNA Pol' of the 186 hits list (primary screen result), unit not given) is on record?
A: Its value is 41.

Q: And the “% inhibition Apo pol 10'” value (DRC-1, concentration 2.5)?
A: Its value is 18.5864%.

Q: And the “% inhibition Apo pol 10'” value (DRC-1, concentration 5)?
A: The value was 36.9179%.

Q: And the “% inhibition Apo pol 10'” value (DRC-1, concentration 10)?
A: The value was 67.7559%.

Q: And the “% inhibition Apo pol 10'” value (DRC-1, concentration 20)?
A: Its value is 96.4602%.

Q: And the “% inhibition Apo pol 10'” value (DRC-1, concentration 40)?
A: The value was 99.5336%.

Q: And the “% inhibition Apo pol 10'” value (DRC-1, concentration 80)?
A: Its value is 99.5405%.

Q: And the “% inhibition Apol 90'” value (DRC-1, concentration 2.5)?
A: The value was 1.843%.

Q: What about the “% inhibition Apol 90'” value (DRC-1, concentration 5) of the same compound?
A: The value was 6.911%.

Q: And the “% inhibition Apol 90'” value (DRC-1, concentration 10)?
A: The value was 25.9736%.

Q: What about the “% inhibition Apol 90'” value (DRC-1, concentration 20) of the same compound?
A: The value was 66.8469%.

Q: What about the “% inhibition Apol 90'” value (DRC-1, concentration 40) of the same compound?
A: Its value is 95.4915%.

Q: And the “% inhibition Apol 90'” value (DRC-1, concentration 80)?
A: The value was 99.0869%.

Q: What about the “% inhibition apPOL 180'” value (DRC-1, concentration 2.5) of the same compound?
A: Its value is -5.136%.

Q: What about the “% inhibition apPOL 180'” value (DRC-1, concentration 5) of the same compound?
A: Its value is -1.681%.

Q: And the “% inhibition apPOL 180'” value (DRC-1, concentration 10)?
A: Its value is 15.3394%.

Q: And the “% inhibition apPOL 180'” value (DRC-1, concentration 20)?
A: The value was 51.5386%.

Q: What about the “% inhibition apPOL 180'” value (DRC-1, concentration 40) of the same compound?
A: The value was 94.1836%.

Q: And the “% inhibition apPOL 180'” value (DRC-1, concentration 80)?
A: The value was 99.3305%.

Q: And the “% inhibition Apo pol 5'” value (DRC-2, concentration 2.5)?
A: Its value is 4%.

Q: And the “% inhibition Apo pol 5'” value (DRC-2, concentration 5)?
A: The value was 9%.

Q: And the “% inhibition Apo pol 5'” value (DRC-2, concentration 10)?
A: Its value is 30%.

Q: And the “% inhibition Apo pol 5'” value (DRC-2, concentration 20)?
A: The value was 52%.

Q: What about the “% inhibition Apo pol 5'” value (DRC-2, concentration 40) of the same compound?
A: Its value is 63%.

Q: What about the “% inhibition Apo pol 5'” value (DRC-2, concentration 80) of the same compound?
A: Its value is 67%.

Q: And the “% inhibition Apol 40'” value (DRC-2, concentration 2.5)?
A: Its value is 3.68%.

Q: What about the “% inhibition Apol 40'” value (DRC-2, concentration 5) of the same compound?
A: The value was 6%.

Q: And the “% inhibition Apol 40'” value (DRC-2, concentration 10)?
A: The value was 20%.

Q: What about the “% inhibition Apol 40'” value (DRC-2, concentration 20) of the same compound?
A: The value was 38%.

Q: And the “% inhibition Apol 40'” value (DRC-2, concentration 40)?
A: The value was 74%.

Q: And the “% inhibition Apol 40'” value (DRC-2, concentration 80)?
A: The value was 82%.

Q: What about the “% inhibition ApPOL 90'” value (DRC-2, concentration 2.5) of the same compound?
A: The value was 3.52%.

Q: And the “% inhibition ApPOL 90'” value (DRC-2, concentration 5)?
A: The value was 5%.

Q: And the “% inhibition ApPOL 90'” value (DRC-2, concentration 10)?
A: Its value is 18%.

Q: And the “% inhibition ApPOL 90'” value (DRC-2, concentration 20)?
A: The value was 33%.

Q: What about the “% inhibition ApPOL 90'” value (DRC-2, concentration 40) of the same compound?
A: Its value is 75%.

Q: What about the “% inhibition ApPOL 90'” value (DRC-2, concentration 80) of the same compound?
A: Its value is 85%.

Q: What about the “% inhibition apPOL 180'” value (DRC-2, concentration 2.5) of the same compound?
A: The value was 4.38%.

Q: And the “% inhibition apPOL 180'” value (DRC-2, concentration 5)?
A: The value was 2.14%.

Q: And the “% inhibition apPOL 180'” value (DRC-2, concentration 10)?
A: Its value is 13%.

Q: What about the “% inhibition apPOL 180'” value (DRC-2, concentration 20) of the same compound?
A: The value was 26%.

Q: What about the “% inhibition apPOL 180'” value (DRC-2, concentration 40) of the same compound?
A: Its value is 72%.

Q: And the “% inhibition apPOL 180'” value (DRC-2, concentration 80)?
A: Its value is 88%.

Q: And the “DNA Pol” value (primary screen value of the library well, unit not given)?
A: Its value is 41.

Q: Cc1ccc(C)c(CSc2nc(C3CCCCC3)c(C#N)c(=O)[nH]2)c1 [Molecule 6] was tested. Which IC50 (supplemental file 2, sheet IC50 nontoxic compounds, Pf-apPOL) did it give?
A: Its IC50 is 6.42 µM.

From PMC9090415, “Discovery of small molecule inhibitors of Plasmodium falciparum apicoplast DNA polymerase” (Journal of Enzyme Inhibition and Medicinal Chemistry, 2022)
